Laboratory results: patent US6737383B1, “Herbicidal oxadiazolidines” (priority 1999, dated 2004)

Tests used:
wild oat = assay: Test B pre/postemergence wild oat; assay type: in vivo, Avena fatua; conditions: Preemergence, scale of 0 to 10 where 0 is no effect and 10 is complete control
In short: (§1)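 Response is a visual 0-to-10 score relative to untreated plants, where 0 means no effect and 10 means complete control, taken twelve to sixteen days after application. Treatments went onto soil at planting and onto foliage of 1- to 4-leaf plants, using a surfactant-containing non-phytotoxic solvent.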

bedstraw = assay: Test B pre/postemergence bedstraw; assay type: in vivo, Galium aparine; conditions: Preemergence
In short: as §1

corn = assay: Test B pre/postemergence corn; assay type: in vivo, Zea mays; conditions: Preemergence
In short: as §1

giant foxtail = assay: Test B pre/postemergence giant foxtail; assay type: in vivo, Setaria faberii; conditions: Preemergence, scale of 0 to 10 where 0 is no effect and 10 is complete control
In short: as §1

wheat = assay: Test B pre/postemergence wheat; assay type: in vivo, Triticum aestivum; conditions: Preemergence, scale of 0 to 10 where 0 is no effect and 10 is complete control
In short: as §1

crabgrass = assay: Test B pre/postemergence crabgrass; assay type: in vivo, Digitaria sanguinalis; conditions: Preemergence
In short: as §1

surinam grass = assay: Test B pre/postemergence surinam grass; assay type: in vivo, Brachiaria decumbens; conditions: Preemergence
In short: as §1

purple nutsedge = assay: Test B pre/postemergence purple nutsedge; assay type: in vivo, Cyperus rotundus; conditions: Preemergence, Rate 125 g/ha; scale of 0 to 10 where 0 is no effect and 10 is complete control
In short: as §1

soybean = assay: Test B pre/postemergence soybean; assay type: in vivo, Glycine max; conditions: Preemergence, scale of 0 to 10 where 0 is no effect and 10 is complete control
In short: as §1

blackgrass = assay: Test B pre/postemergence blackgrass; assay type: in vivo, Alopecurus myosuroides; conditions: Preemergence
In short: as §1

cocklebur = assay: Test B pre/postemergence cocklebur; assay type: in vivo, Xanthium strumarium; conditions: Preemergence
In short: as §1

pigweed = assay: Test B pre/postemergence pigweed; assay type: in vivo, Amaranthus retroflexus; conditions: Preemergence, scale of 0 to 10 where 0 is no effect and 10 is complete control
In short: as §1

velvetleaf = assay: Test B pre/postemergence velvetleaf; assay type: in vivo, Abutilon theophrasti; conditions: Preemergence, scale of 0 to 10 where 0 is no effect and 10 is complete control
In short: as §1

morningglory = assay: Test B pre/postemergence morningglory; assay type: in vivo, Ipomoea hederacea; conditions: Preemergence, scale of 0 to 10 where 0 is no effect and 10 is complete control
In short: as §1

rape = assay: Test B pre/postemergence rape; assay type: in vivo, Brassica napus; conditions: Preemergence, scale of 0 to 10 where 0 is no effect and 10 is complete control
In short: as §1

sugar beet = assay: Test B pre/postemergence sugar beet; assay type: in vivo, Beta vulgaris; conditions: Preemergence, scale of 0 to 10 where 0 is no effect and 10 is complete control
In short: as §1

[1] = Rate 62 g/ha, scale of 0 to 10 where 0 is no effect and 10 is complete control
[2] = Rate 125 g/ha, scale of 0 to 10 where 0 is no effect and 10 is complete control
[3] = Rate 250 g/ha, scale 0 to 10 (0 no effect, 10 complete control)
[4] = Rate 500 g/ha, scale of 0 to 10 where 0 is no effect and 10 is complete control

SMILES: CC(C)N(C(=O)n1oc(=O)n(C(C)C=O)c1=O)c1ccccc1 (centres unmarked) [Compound 693]
- Wild oats plant response rating (wild oat; Rate 62 g/ha): 0
- Plant response rating, Wild oats (wild oat; Rate 125 g/ha): 0
- Bedstraw plant response rating (bedstraw; [1]): 0
- Plant response rating, Bedstraw (bedstraw; [2]): 0
- Plant response rating, Bedstraw (bedstraw; [3]): 0
- Plant response rating, Bedstraw (bedstraw; [4]): 0
- Corn plant response rating (corn; [1]): 0
- Plant response rating, Corn (corn; [2]): 0
- Plant response rating, Corn (corn; [3]): 0
- Giant foxtail plant response rating (giant foxtail; Rate 62 g/ha): 0
- Plant response rating, Giant foxtail (giant foxtail; Rate 125 g/ha): 0
- Wheat plant response rating (wheat; Rate 62 g/ha): 0
- Plant response rating, Wheat (wheat; Rate 125 g/ha): 0
- Crabgrass plant response rating (crabgrass; [1]): 0
- Plant response rating, Crabgrass (crabgrass; [2]): 0
- Plant response rating, Crabgrass (crabgrass; [3]): 0
- B. signalgrass plant response rating (surinam grass; [1]): 0
- Plant response rating, B. signalgrass (surinam grass; [2]): 0
- Plant response rating, B. signalgrass (surinam grass; [3]): 0
- Plant response rating, B. signalgrass (surinam grass; [4]): 0
- Plant response rating, Nutsedge (purple nutsedge): 0
- Soybean plant response rating (soybean; Rate 62 g/ha): 0
- Plant response rating, Soybean (soybean; Rate 125 g/ha): 0
- Blackgrass plant response rating (blackgrass; [1]): 0
- Plant response rating, Blackgrass (blackgrass; [2]): 0
- Plant response rating, Blackgrass (blackgrass; [3]): 0
- Plant response rating, Blackgrass (blackgrass; [4]): 2
- Cocklebur plant response rating (cocklebur; [1]): 0
- Plant response rating, Cocklebur (cocklebur; [2]): 0
- Plant response rating, Cocklebur (cocklebur; [3]): 0
- Plant response rating, Cocklebur (cocklebur; [4]): 0
- Redroot pigweed plant response rating (pigweed; Rate 62 g/ha): 0
- Plant response rating, Redroot pigweed (pigweed; Rate 125 g/ha): 0
- Velvetleaf plant response rating (velvetleaf; Rate 62 g/ha): 0
- Plant response rating, Velvetleaf (velvetleaf; Rate 125 g/ha): 0
- Morningglory plant response rating (morningglory; Rate 62 g/ha): 0
- Plant response rating, Morningglory (morningglory; Rate 125 g/ha): 0
- Rape plant response rating (rape; Rate 62 g/ha): 0
- Plant response rating, Rape (rape; Rate 125 g/ha): 0
- Sugarbeets plant response rating (sugar beet; Rate 62 g/ha): 0
- Plant response rating, Sugarbeets (sugar beet; Rate 125 g/ha): 0
